BindingDB's records for doi:10.7270/Q22V2DH9 (Nmmlsc, 2007)
pIC50: −log10 of the molar value.

Target: T1, N-formyl peptide receptor 2 (Homo sapiens, UniProt P25090)
T1 sequence (P25090 whole entry): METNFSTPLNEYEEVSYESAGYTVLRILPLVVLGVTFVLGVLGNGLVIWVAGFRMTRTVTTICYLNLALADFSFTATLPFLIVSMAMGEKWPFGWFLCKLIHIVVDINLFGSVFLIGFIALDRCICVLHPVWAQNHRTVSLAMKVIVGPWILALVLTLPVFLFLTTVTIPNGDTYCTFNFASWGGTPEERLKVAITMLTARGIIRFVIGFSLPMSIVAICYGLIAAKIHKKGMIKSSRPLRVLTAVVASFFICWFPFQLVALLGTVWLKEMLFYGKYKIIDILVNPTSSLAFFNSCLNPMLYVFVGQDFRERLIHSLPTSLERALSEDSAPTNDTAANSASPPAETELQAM
Test: FPRL1 fluorescent ligand binding inhibitors, dose response, selectivity assay for FPR1 ligand SAR project, cell-based, flow cytometry, Ki from IC50 (AID 723)

Row | SMILES | pIC50
1 | COc1ccccc1-c1c(C(F)(F)F)oc2cc(OC(=O)c3ccco3)ccc2c1=O | < 4.18
2 | O=C(Oc1ccc2c(=O)c(-c3ccccc3Cl)c(C(F)(F)F)oc2c1)c1cccs1 | < 4.18
3 | CC(=O)C1C(=O)C(=O)N(CCc2c(C)[nH]c3ccccc23)C1c1cccc(F)c1 (stereo not given) | < 4.18
4 | COc1ccc(C(=O)C2C(=O)C(=O)N(CCc3c[nH]c4ccccc34)C2c2ccc(C(C)C)cc2)cc1 (stereo not given) | < 4.18
5 | COc1ccc(-c2c(C)[nH]n3c(=O)c4c(nc23)CCCC4)cc1 | < 4.18
6 | Cc1nc2c(-c3ccc(Cl)cc3)c(C(F)(F)F)[nH]n2c(=O)c1Cc1ccccc1 | < 4.18
7 | COc1ccc(C2C(C(=O)c3cccs3)C(=O)C(=O)N2CCCn2ccnc2)cc1 (stereo not given) [1-(3-imidazol-1-ylpropyl)-2-(4-methoxyphenyl)-4-oxidanyl-3-thiophen-2-ylcarbonyl-2H-pyrrol-5-one] | < 4.18
8 | COc1cc(C2C(C(C)=O)C(=O)C(=O)N2c2ccc(Br)cc2)ccc1O (stereo not given) [1-(4-bromophenyl)-3-ethanoyl-2-(3-methoxy-4-oxidanyl-phenyl)-4-oxidanyl-2H-pyrrol-5-one] | < 4.18
9 | Cc1sc2c(c1C)c(=O)n(Cc1ccccc1)c(=O)n2Cc1ccccc1F [1-[(2-fluorophenyl)methyl]-5,6-dimethyl-3-(phenylmethyl)thieno[2,3-d]pyrimidine-2,4-dione] | < 4.18
10 | COc1ccc(C2C(C(=O)c3cccs3)C(=O)C(=O)N2CCN2CCOCC2)c(OC)c1 (stereo not given) [2-(2,4-dimethoxyphenyl)-1-(2-morpholin-4-ylethyl)-4-oxidanyl-3-thiophen-2-ylcarbonyl-2H-pyrrol-5-one] | < 4.18
11 | COc1ccc(C2C(C(=O)c3ccco3)C(=O)C(=O)N2CCCN2CCOCC2)cc1OC (stereo not given) [2-(3,4-dimethoxyphenyl)-3-(furan-2-carbonyl)-4-hydroxy-1-(3-morpholin-4-ylpropyl)-2H-pyrrol-5-one] | < 4.18
12 | O=C1C(=O)N(CCc2ccccc2)C(c2ccc(Cl)cc2)C1C(=O)c1cccs1 (stereo not given) [2-(4-chlorophenyl)-4-hydroxy-1-(2-phenylethyl)-3-(thiophene-2-carbonyl)-2H-pyrrol-5-one] | < 4.18
13 | O=C(O)C1CCCCC1C(=O)Nc1ccc(Br)cc1 (stereo not given) [2-[(4-bromoanilino)-oxomethyl]-1-cyclohexanecarboxylic acid] | < 4.18
14 | CCC(C)(C(=O)NC1CCCCC1)N(Cc1cccs1)C(C)=O (stereo not given) [2-[acetyl(2-thenyl)amino]-N-cyclohexyl-2-methyl-butyramide] | < 4.18
15 | COc1ccc(-c2c(C(F)(F)F)oc3cc(OC(=O)c4ccco4)ccc3c2=O)cc1OC [2-furancarboxylic acid [3-(3,4-dimethoxyphenyl)-4-oxo-2-(trifluoromethyl)-1-benzopyran-7-yl] ester] | < 4.18
16 | O=C(Oc1ccc2c(=O)c(Oc3ccccc3Br)c(C(F)(F)F)oc2c1)c1cccs1 [2-thiophenecarboxylic acid [3-(2-bromophenoxy)-4-oxo-2-(trifluoromethyl)-1-benzopyran-7-yl] ester] | < 4.18
17 | COc1cc(C2C(C(=O)c3cc4ccccc4o3)C(=O)C(=O)N2CCN(C)C)ccc1O (stereo not given) [3-(1-benzofuran-2-carbonyl)-1-[2-(dimethylamino)ethyl]-4-hydroxy-2-(4-hydroxy-3-methoxyphenyl)-2H-pyrrol-5-one] | < 4.18
18 | COc1ccc(C2C(C(=O)c3cc4ccccc4o3)C(=O)C(=O)N2CCN(C)C)cc1OC (stereo not given) [3-(1-benzofuran-2-carbonyl)-2-(3,4-dimethoxyphenyl)-1-[2-(dimethylamino)ethyl]-4-hydroxy-2H-pyrrol-5-one] | < 4.18
19 | O=C1C(=O)N(CCCn2ccnc2)C(c2cccnc2)C1C(=O)c1cc2ccccc2o1 (stereo not given) [3-(1-benzofuran-2-carbonyl)-4-hydroxy-1-(3-imidazol-1-ylpropyl)-2-pyridin-3-yl-2H-pyrrol-5-one] | < 4.18
20 | O=C1C(=O)N(CCCN2CCOCC2)C(c2cccnc2)C1C(=O)c1cc2ccccc2o1 (stereo not given) [3-(1-benzofuran-2-carbonyl)-4-hydroxy-1-(3-morpholin-4-ylpropyl)-2-pyridin-3-yl-2H-pyrrol-5-one] | < 4.18
